Article PMC5108454 (Cell metabolism, 2016)

Experiments:
[1] = target: T1, Sdh (succinate dehydrogenase; complex II) (Mus musculus, UniProt Q8K2B3); test: complex II enzyme activity microplate assay, Dixon plot; type: biochemical
[2] = target: T1, Sdh (succinate dehydrogenase; complex II); test: complex II enzyme activity microplate assay, Lineweaver-Burk plot; type: biochemical; details: sodium succinate hexahydrate varied in activity buffer with phospholipid mixture

T1 sequence (Q8K2B3 43-664): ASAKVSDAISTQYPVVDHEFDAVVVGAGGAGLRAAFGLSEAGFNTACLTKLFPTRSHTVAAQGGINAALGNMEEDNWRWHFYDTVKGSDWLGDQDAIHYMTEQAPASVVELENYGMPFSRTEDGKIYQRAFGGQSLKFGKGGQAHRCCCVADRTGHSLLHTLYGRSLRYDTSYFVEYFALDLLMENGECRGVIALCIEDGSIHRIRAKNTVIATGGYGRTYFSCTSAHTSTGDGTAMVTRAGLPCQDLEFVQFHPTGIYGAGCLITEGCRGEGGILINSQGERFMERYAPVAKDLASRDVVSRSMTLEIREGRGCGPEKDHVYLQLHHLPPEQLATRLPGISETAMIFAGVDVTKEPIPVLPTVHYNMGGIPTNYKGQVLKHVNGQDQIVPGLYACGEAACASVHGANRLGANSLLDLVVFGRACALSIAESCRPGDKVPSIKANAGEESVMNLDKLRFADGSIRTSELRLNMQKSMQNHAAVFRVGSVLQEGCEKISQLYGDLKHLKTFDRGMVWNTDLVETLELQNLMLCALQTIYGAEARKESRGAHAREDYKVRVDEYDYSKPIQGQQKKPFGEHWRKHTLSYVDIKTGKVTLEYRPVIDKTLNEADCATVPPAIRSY
T1 sequence (Q9CQA3 31-282 partner): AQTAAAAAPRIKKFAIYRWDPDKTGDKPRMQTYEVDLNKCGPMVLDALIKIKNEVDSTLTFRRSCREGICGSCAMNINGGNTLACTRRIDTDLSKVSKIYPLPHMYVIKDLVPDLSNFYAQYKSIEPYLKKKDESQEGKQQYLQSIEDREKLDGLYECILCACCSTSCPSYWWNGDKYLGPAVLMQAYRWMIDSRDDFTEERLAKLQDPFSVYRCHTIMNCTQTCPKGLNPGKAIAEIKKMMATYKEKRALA
T1 sequence (Q9CZB0 30-169 partner): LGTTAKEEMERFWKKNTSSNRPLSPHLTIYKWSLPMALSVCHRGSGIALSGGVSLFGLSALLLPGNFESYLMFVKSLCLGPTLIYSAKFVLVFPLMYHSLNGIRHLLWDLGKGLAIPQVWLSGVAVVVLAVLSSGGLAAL
T1 sequence (Q9CXV1 57-159 partner): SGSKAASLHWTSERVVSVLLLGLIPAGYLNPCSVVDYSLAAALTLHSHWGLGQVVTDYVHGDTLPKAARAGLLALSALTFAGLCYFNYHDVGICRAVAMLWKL

Ki [1] [µM]	Km [2] [µM]	Compound
220	–	C=C(CC(=O)O)C(=O)O [itaconate]
–	290 ± 800	O=C(O)CCC(=O)O [succinate]
